Earlier results in patent publication EP2266541A1, “Solid pharmaceutical composition comprising rivaroxaban” (Krka Tovarna Zdravil, D.D., Novo Mesto, priority 2009, dated 2010).

Conditions: stated in the background section, no method given

solubility in water: about 7 mg/L
SMILES: O=C(NC[C@H]1CN(c2ccc(N3CCOCC3=O)cc2)C(=O)O1)c1ccc(Cl)s1 [Rivaroxaban, 5-chloro-N-{[(5S)-2-oxo-3-[4-(3-oxomorpholin-4-yl)phenyl]oxazolidin-5-yl]methyl}thiophene-2-carboxamide]
